We go through 3 compounds from patent US6559161B1, “Cytotoxic pyrido[2,3,4-ki]acridine derivatives, their preparation and their therapeutic use” (Universidad de Barcelona, priority 1999, dated 2003).

Like-named read-outs stand apart in the source and are kept apart here.

What is called IC50 is the point on the concentration scale where inhibition reaches its midpoint. In general, melting point refers to the temperature, or range, at which the solid turns liquid.

Data set [1] has as its system A549 (ATCC CCL-185, human lung carcinoma). Briefly: cytotoxicity, growth inhibition of A549 cells, Crystal Violet staining. Type of data set: cell-based. To be noted: approximate IC50, three days of incubation at 37° C., read-out: IC50 (μM) A549 ATCC-CCL-L-185. The source says: (§1) The antitumour activity of the compounds of the present invention has been detected in vitro by culturing the tumour cells following the methodology described in Bergeron et al (1984), and by Schroeder et al (1981). Activity against different tumours as mouse lymphoma, human NSC lung carcinoma, human melanoma and human colon carcinoma has been observed.
(§2) Biological activity: cells were maintained in logarithmic phase of growth in Eagle's Minimum Essential Medium, with Earle's Balanced Salts, with 2.0 mM L-glutamine, with non-essential amino acids, without sodium bicarbonate (EMEM/neaa); supplemented with 10% Fetal Calf Serium (FCS), 10^−2 M sodium bicarbonate and 0.1 g/l penicillin-G+streptomycin sulfate.
(§3) The tumour cell lines employed have been P-388D1 (ATCC CCL-46, suspension culture of a lymphoid neoplasm from DBA/2 mouse), A549 (ATCC CCL-185, monolayer culture of a human lung carcinoma), HT-29 (ATCC HTB-38, monolayer culture of a human colon carcinoma) and SK-MEL-28 (ATCC HTB-72, monolayer culture of a human melanoma).
(§4) A549, HT-29 and SK-MEL-28 were seeded into 16 mm wells at 2×10^4 cells per well in 1 ml aliquots of MEM 10FCS containing the indicated concentration of drug. A separate set of cultures without drug and was seeded as control growth to ensure that cells remained in exponential phase of growth. All determinations were carried out in duplicate. After three days of incubation at 37° C., 10% CO2 in a 98% humid atmosphere, the wells were stained with 0.1% Crystal Violet. An approximate IC50 was determined by comparing the growth in wells with drug to the growth in wells control.

For data set [2], the system named is SK-MEL-28 (ATCC HTB-72, human melanoma). Briefly: cytotoxicity, growth inhibition of SK-MEL-28 cells, Crystal Violet staining. Type of data set: cell-based. The following applies: approximate IC50, three days of incubation at 37° C.
From the text: as §1, §2, §3, §4

In data set [3] the test system is P-388D1 (ATCC CCL-46, lymphoid neoplasm from DBA/2 mouse). Briefly: cytotoxicity, growth inhibition of P-388D1 cells in culture. Type of data set: cell-based. The following applies: approximate IC50, three days of incubation at 37° C., growth vs control wells.
From the text: as §1, §2, §3
P-388D1 cells were seeded into 16 mm wells at 1×10^4 cells per well in 1 ml aliquots of MEM 5FCS containing the indicated concentration of drug. A separate set of cultures without drug was seeded as control growth to ensure that cells remained in expotential phase of growth. All determinations were carried out in duplicate. After three days of incubation at 37° C., 10% CO2 in a 98% humid atmosphere, an approximate IC50 was determined by comparing the growth in wells with drug to the growth in wells control.

The subject of data set [4] is HT-29 (ATCC HTB-38, human colon carcinoma). Briefly: cytotoxicity, growth inhibition of HT-29 cells, Crystal Violet staining. Type of data set: cell-based. The following applies: approximate IC50, three days of incubation at 37° C.
From the text: as §1, §2, §3, §4

Consider `COc1ccc2c3c(c4ccccc4nc13)C=CN2` [Example 1, 3H-6-Methoxypyrido[2,3,4-kl]acridine], for which the IC50 in data set [1] was determined as 0.05 µM; in data set [2], 0.05 µM; in data set [3], 0.5 µM; in data set [4] it was 0.5 µM.

`COc1cc([N+](=O)[O-])c2c3c(c4ccccc4nc13)C=CN2` [Example 3, 6-Methoxy-4-nitro-3H-pyrido[2,3,4-kl]acridine] yielded a melting point of 220 to 223 °C. Further, the 50% inhibitory concentration (IC50) in data set [1] (Homo sapiens, A549, 72 h) was found to be 0.03 µM. Moreover, the IC50 in data set [2] (Homo sapiens, SK-MEL-28, 72 h) was 0.03 µM. In data set [3] (Mus musculus, P388D1, 72 h), this compound yielded an IC50 of 0.34 µM. In addition, in data set [4] (Homo sapiens, HT-29, 72 h), half-maximal inhibition (IC50) required 0.34 µM.

`COc1cc(NC(C)=O)c2c3c(c4ccccc4nc13)C=CN2` [Example 4, 4-Acetylamino-6-methoxy-3H-pyrido[2,3,4-kl]acridine] yielded a melting point of 128 to 132 °C. For the same compound, the IC50 in data set [1] (Homo sapiens, A549, 72 h) was 0.03 µM. In data set [2] (Homo sapiens, SK-MEL-28, 72 h), half-maximal inhibition (IC50) required 0.03 µM. In data set [3] (Mus musculus, P388D1, 72 h), this compound came in with a half-inhibitory concentration (IC50) of 1.64 µM. Also, the half-inhibitory concentration (IC50) in data set [4] (Homo sapiens, HT-29, 72 h) is 1.64 µM.
